Results on 60 molecules are retold here after the METLIN SMRT retention time set (Domingo-Almenara et al. 2019).

The series is described as follows: gradient 5% acetonitrile 3 min, to 50% in 2 min, to 85% in 15 min, held 3 min, 100 µL/min. The conditions noted are these: column: Zorbax Extend-C18 2.1 x 50 mm; eluents: water / acetonitrile, 0.1% formic acid. Summed up: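 Retention times of pure standards were taken from adduct peaks that were selected by computer and manually inspected. Over 3 months, mixtures of ~100 molecules were run by HPLC–quadrupole time-of-flight mass spectrometry in positive and negative ionization mode. The Zorbax Extend-C18 column (2.1 × 50 mm, 1.8 μm) ran at 100 μL/min in water and acetonitrile, each containing 0.1% formic acid, with 40 μL dead volume and 900 μL dwell volume.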
`COc1cc(NC(C)=O)c(Cl)cc1C(=O)NCCc1c[nH]c2ccc(C)cc12` came in with an RP-LC retention time of 831 s. In turn, `Cc1c2cnn(-c3ccccc3)c(=O)c2c(C)n1C(C)C(=O)NCCN1CCOCC1` (stereo not given) had an RP-LC retention time of 607 s. Molecule `CC(C)Oc1ccccc1CN1CC(c2nc(-c3ccncc3)nn2C)C1` came in with an RP-LC retention time of 590 s. Molecule `Cc1ccc(-c2cn3c(CC(=O)NCCCc4ccccc4)csc3n2)cc1C` showed an RP-LC retention time of 887 s. Under `Cc1ccc(Cn2cc(-c3ccncc3)cc2C(=O)NCC2CC2)cc1` stands 705 s; under `O=C(CCC1CCCN(c2cc(NC3CC3)ncn2)C1)NC1CCN(Cc2ccccc2)CC1` (stereo not given), 570 s; under `CC(=O)Nc1ccc(C(=O)NCCNC(=O)CC(c2ccccc2)c2ccccc2)cc1`, 697 s. Molecule `Cn1ncc2c3ccccc3n(CCCC(=O)NCc3ccccc3F)c2c1=O` returned an RP-LC retention time of 812 s. Under `COc1ccc(-c2nnc(SCc3ccc(Br)cc3)o2)c(OC)c1` stands 1120 s; under `Cc1nn(-c2cc(N(C)C)ncn2)c(C)c1CCC(=O)NCc1ccccc1`, 716 s; under `CCCNC(=O)C1=Cc2cc(Cl)cc(OC)c2OC=C1`, 977 s. Turning to `Cc1ccc(-n2ncc3c(=O)n(Cc4nc(-c5ccc(OC(C)C)cc5)no4)cnc32)cc1Cl`, the RP-LC retention time came to 726 s. As to `CCc1nnc(NS(=O)(=O)c2ccc(N)cc2)s1`, the RP-LC retention time was determined as 711 s.

In turn, `Cc1nnc(NC(=O)c2ccc(OCc3nc(-c4ccco4)cs3)cc2)s1` registered an RP-LC retention time of 815 s.

In turn, `O=C(Nc1ccc(Br)cc1F)C1CCCN(c2nc3ccccc3nc2C(F)(F)F)C1` (stereo not given) displayed an RP-LC retention time of 1360 s. As to `OC1(c2ccccn2)CCOC2(CCN(Cc3ccc(F)cc3Cl)CC2)C1` (stereo not given), the RP-LC retention time amounted to 570 s.

On to `CC1(C(=O)NC2CCCCCC2)CN(S(C)(=O)=O)CC(=O)N1Cc1ccc(Cl)cc1` (stereo not given), for which the RP-LC retention time was determined as 946 s. Under `Cc1ccc(S(=O)(=O)Nc2ccc3c(c2)CCC(=O)N3CC(C)C)cc1Cl` stands 994 s; under `CCN(CC)CCCNC(=O)Cn1c2ccccc2c2cnn(C)c(=O)c21`, 596 s; under `CCOC(=O)c1c(C)[nH]c(CCC(=O)NCc2cn[nH]c2C)c1C`, 626 s. `Cc1cc2c(=O)n(CC(=O)Nc3cccc(Cl)c3C)ccc2s1` came in with an RP-LC retention time of 819 s. Under `NC1N=C(c2ccccc2)c2ccccc2NC1=O` (stereo not given) stands 568 s; under `Cc1cc(C)n(-c2ncnc3c2cnn3-c2ccc(F)cc2)n1`, 1420 s. With `Cc1cccc2nnc(N3CCN(C(=O)c4cc5c(s4)CCCC5)CC3)n12` the figure was 605 s. With `Cc1ccc(N2CCC(NC(=O)Cc3ccccc3C)C2=O)cc1` (stereo not given) the figure was 869 s. For the molecule `O=C1C(Br)=Cc2cccc3cccc1c23`, the RP-LC retention time was 996 s. With `CCCN(C)C(=O)c1c(C)oc2c1CN(C(=O)CC)CC2` the figure was 652 s. For the molecule `Cc1cc(N2CCCC2)nc(N2CCN(S(=O)(=O)c3ccc(Br)cc3)CC2)n1`, the RP-LC retention time was determined as 820 s. Molecule `CCC1CCCCN1CCCNC(=O)CCc1cc2ccccc2[nH]c1=O` (stereo not given) returned an RP-LC retention time of 598 s.

`CCOc1ccccc1NC(=O)c1c(O)c2cccnc2n(-c2ccccc2)c1=O` came in with an RP-LC retention time of 1330 s.

For `CCn1cc(C)c(C(=O)O)c1CC(=O)Nc1ccc2c(c1)OCCO2`, the RP-LC retention time was 762 s. `O=C(Cn1ncccc1=O)N1CCN(c2ccc(-c3ccccn3)nn2)CC1` gave an RP-LC retention time of 537 s. With `COc1ccc(Br)cc1S(=O)(=O)Nc1cc(-c2cn3ccccc3n2)ccc1C` the figure was 701 s; with `O=C(NCc1ccc(F)cc1)c1ccc2c(cnn2CC(=O)N2CCCCCC2)c1`, 951 s.

As to `C=CCN(C)C(=O)c1cnn2c3c(cnc12)CCCCCC3`, the RP-LC retention time is 827 s. As to `COc1cc(NS(=O)(=O)c2cc3n(c2)CCCNC3=O)cc(OC)c1`, the RP-LC retention time came to 639 s. `COc1ccc(NC(=O)c2cc3c(=O)n(CC(C)C)c4ccccc4n3n2)cc1OC` registered an RP-LC retention time of 910 s. `CCCCN1CCN(C(=O)c2cc(-c3ccncc3)cn2Cc2ccc(C)cc2)CC1`: the RP-LC retention time is 582 s.

For the molecule `CCCNC(=O)C1CCCN(c2nc3ncn(CC(=O)NC4CCCC4)c(=O)c3s2)C1` (stereo not given), the RP-LC retention time was found to be 641 s.

Take `Cc1ccccc1-n1nc2c(c1NC(=O)CSCc1ccccc1)CSC2`: the RP-LC retention time was found to be 907 s. With `Cc1ccc(-c2nc(N3CC4(C)CC3CC(C)(C)C4)c3ccccc3n2)cc1` (stereo not given) the figure was 1060 s; with `CN(C)C(=O)C1CCc2nc(N3CCN(C(=O)C4CCC4)CC3)sc2C1` (stereo not given), 590 s. With `COc1ccc(C2CC(=O)N(c3ccc(F)c(Cl)c3)C(=O)C2)cc1OC` the figure was 915 s. With `CCCNC(=O)C1CCCN(c2nc3ncn(CC(=O)NCc4ccc(OC)cc4)c(=O)c3s2)C1` (stereo not given) the figure was 680 s. The molecule `Cn1c(=O)n(CC(=O)O)c(=O)c2c1nc1n2CCN1c1ccc(Cl)cc1` showed an RP-LC retention time of 748 s. As to `CCCC(=O)Nc1cc2c(cc1S(=O)(=O)c1ccc(F)cc1)n(C)c(=O)n2C`, the RP-LC retention time amounted to 767 s. With `ClCC(CNCc1ccccc1)c1ccccc1` (stereo not given), the RP-LC retention time was 723 s. With `O=C(c1n[nH]c2ccccc12)N1CCn2c(nnc2-c2ccccc2)C1` the figure was 664 s; with `O=C(c1sc2ncccc2c1-n1cccc1)N1CCN(Cc2ccccc2)CC1`, 648 s. `Cc1cnn(CCC(=O)NC2CCN(c3ccc(=O)n(CC4CC4)n3)C2)c1` (stereo not given) came in with an RP-LC retention time of 654 s. Molecule `CCc1cccc(C)c1NC(=O)C1CCCN(S(=O)(=O)c2cc(-c3noc(C)n3)cs2)C1` (stereo not given) came in with an RP-LC retention time of 995 s.

On to `CCOc1ccccc1NC(=O)N1CCN(c2cnn3c(C)nnc3c2)CC1`, for which the RP-LC retention time was 658 s. Under `Cc1cccc(OCC(=O)N2CCC3(C2)C(=O)N(C)c2ccccc23)c1` (stereo not given) stands 825 s; under `CCCc1nc(-c2cc3ccccc3nc2N2CCN(C)CC2)no1`, 671 s. `C=CCNC(=O)c1ccc(-n2nc(C)cc2C)nc1` had an RP-LC retention time of 739 s. With `O=C(O)c1nnn(-c2cccc(Cl)c2)c1-c1cccnc1`, the RP-LC retention time amounted to 680 s. Under `O=C(CCn1nnc2cc(-c3noc(-c4ccccc4F)n3)ccc21)N1CCCC1` stands 865 s. In turn, `CCOC(=O)c1ccc(NC(=O)C2CCCN(c3ncnc4c3nc3n4CCCCC3)C2)cc1` (stereo not given) returned an RP-LC retention time of 873 s. The molecule `Cn1cnnc1-c1nn(C)c2c1CN(C(=O)c1n[nH]c3c1CCCCCC3)CC2` yielded an RP-LC retention time of 650 s. As to `CCOC(=O)c1cc(S(=O)(=O)NCCC(=O)N2CCN(c3ccccn3)CC2)cn1C`, the RP-LC retention time is 601 s.
